Laboratory results from patent publication US20190008790A1, “A METHOD FOR THE PREPARATION OF A DELIVERY DRUG DELIVERY SYSTEM AND A COMPOSITION THEREFOR” (Element Six (UK) Limited, priority 2015, published 2019).
In brackets after ≈: the same amount, converted by molar mass.

Experiments:
[1] = system: Staphylococcus aureus subsp. aureus MRSA252; test: Minimum Bactericidal Concentration Test (MBC), re-growth as percentage of positive control; assay type: cell-based; conditions: ciprofloxacin concentration, dilutions of 0.5 mg/ml stock, re-growth vs positive control, read-out: concentration at which activity against MRSA252 was maintained (MBC test)
Description: In this example, the efficacy of the product of Example 7 was tested against Comparative Example 7 using a Minimum Bactericidal Concentration Test (MBC) to compare the inhibitory.
A sample of the spray dried powder obtained from Example 7 was dispersed into deionised water to give a ciprofloxacin concentration of 0.5 mg/ml (“Solution A”). A dispersion having the same concentration of ciprofloxacin was prepared by dissolving ciprofloxacin into dimethyl sulfoxide (“Solution B”). A third sample (“Solution C”) consisting of a water saturated ciprofloxacin solution was prepared by dispersing powder obtained from Comparative Example 7.
All three solutions were diluted to various concentrations and were subject to Minimum Bactericidal Concentration Test (MBC) to compare the inhibitory activity via re-growth of Staphylococcus aureus subsp. aureus MRSA252 as percentage of positive control. […] Solution B (DMSO/ciprofloxacin organic solution) maintained activity against MRSA252 at 62.5 mg/L (see FIG. 4(b)).

Fusobacterium nucleatum = test: IC50 test (half maximal inhibitory concentration) on gram-negative bacterium; assay type: cell-based; conditions: Triclosan ppm, percentage growth compared to positive control, 800 ppm stock
Excerpt: The effectiveness of the active pharmaceutical ingredient may be measured by means of its “half maximal inhibitory concentration”, also known as the “IC50” value.
The IC50 of a substance is a measure of the effectiveness of that substance in inhibiting a specific biological or biochemical function. The IC50 indicates how much of a particular drug or other substance (inhibitor) is needed to inhibit a given biological process (or component of a process, i.e. an enzyme, cell, cell receptor or microorganism) by half. It is commonly used as a measure of antagonist drug potency in pharmacological research. The IC50 of a drug can be determined by constructing a dose-response curve and examining the effect of different concentrations of antagonist on reversing agonist activity. IC50 values can be calculated for a given antagonist by determining the concentration needed to inhibit half of the maximum biological response of the agonist.
A sample of the Triclosan™/nano-diamond powder produced according to Example 5 was dispersed into deionized water to form an 800 ppm Triclosan™ dispersion (Solution 1).
Triclosan™ was dissolved into an ethanol/water mixture (50/50 in volume) to form an 800 ppm Triclosan™ solution (Solution 2). An IC50 test was conducted with Solution 2 on gram-negative bacteria (Fusobacterium nucleatum). […]

Row | Structure (SMILES) | MBC [1] | IC50 (Fusobacterium nucleatum) | IC50 (Fusobacterium nucleatum; listed as Triclosan™ in a 50:50 by volume water/ethanol solution)
1 | O=C(O)c1cn(C2CC2)c2cc(N3CCNCC3)c(F)cc2c1=O [Solution B, ciprofloxacin] | 62.5 µg/mL (≈ 189 µM) |  | 
2 | Oc1cc(Cl)ccc1Oc1ccc(Cl)cc1Cl [Solution 2, 5-chloro-2-(2,4-dichloro-phenoxy)-phenol] |  | around 56 ppm | ~56 ppm
